From ChEMBL document CHEMBL4118122, “Identification and biological evaluation of thiazole-based inverse agonists of RORγt” (Bioorg Med Chem Lett, 2018)

Tests used:
PXR (NR1I2) = target: T1, PXR (NR1I2) (Homo sapiens, UniProt O75469); assay: […] at PXR LBD (unknown origin) expressed in HEK293 cells […] at 1 uM after 16 hrs by luciferase reporter gene assay relative to rifampicin; type: ADME, cell-based; details: HEK293 cells expressing PXR LBD, read-out: Efficacy
T1 sequence (O75469 whole entry): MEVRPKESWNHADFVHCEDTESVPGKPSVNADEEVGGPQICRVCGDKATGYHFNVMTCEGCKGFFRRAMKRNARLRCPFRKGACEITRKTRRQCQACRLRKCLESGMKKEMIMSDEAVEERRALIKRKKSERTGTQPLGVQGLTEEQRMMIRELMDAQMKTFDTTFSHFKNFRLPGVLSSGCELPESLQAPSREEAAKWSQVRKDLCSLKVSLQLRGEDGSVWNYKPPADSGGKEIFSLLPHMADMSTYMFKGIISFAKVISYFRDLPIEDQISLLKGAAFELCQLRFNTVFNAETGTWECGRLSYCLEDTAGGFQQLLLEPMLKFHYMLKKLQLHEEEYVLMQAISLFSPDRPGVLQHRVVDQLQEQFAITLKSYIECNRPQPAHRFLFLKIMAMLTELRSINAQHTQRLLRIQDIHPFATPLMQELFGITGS

[1] = target: Endothelin-1 receptor (Homo sapiens) (UniProt P25101); assay: Displacement of [125I]-endothelin-1 from human recombinant ETA receptor at 10 uM after 120 mins by scintillation counting analysis relative to control
Chain of Endothelin-1 receptor (Homo sapiens) (P25101 whole entry): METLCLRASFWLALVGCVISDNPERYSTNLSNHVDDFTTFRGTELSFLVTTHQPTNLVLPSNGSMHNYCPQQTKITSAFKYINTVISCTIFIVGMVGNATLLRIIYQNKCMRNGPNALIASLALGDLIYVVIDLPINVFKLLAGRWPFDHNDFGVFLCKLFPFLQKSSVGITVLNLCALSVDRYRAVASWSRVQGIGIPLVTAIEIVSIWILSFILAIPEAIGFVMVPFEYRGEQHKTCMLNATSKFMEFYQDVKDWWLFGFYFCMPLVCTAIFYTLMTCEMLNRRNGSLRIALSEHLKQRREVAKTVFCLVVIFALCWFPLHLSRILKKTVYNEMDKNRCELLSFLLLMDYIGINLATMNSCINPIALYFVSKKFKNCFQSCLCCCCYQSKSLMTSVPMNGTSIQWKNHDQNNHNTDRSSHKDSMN

Melanocortin receptor 4 = Melanocortin receptor 4 (Homo sapiens, UniProt P32245); assay: Displacement of [125I]NDP-alpha -MSH from human recombinant MC4 receptor at 10 uM after 120 mins by scintillation counting analysis relative to control
[2] = target: Neuromedin-K receptor (Homo sapiens) (UniProt P29371); assay: Displacement of [3H]SR 142801 from human recombinant NK3 receptor at 10 uM after 120 mins by scintillation counting analysis relative to control
Nociceptin receptor = Nociceptin receptor (Homo sapiens, UniProt P41146); assay: Displacement of [3H]nociceptin from human recombinant NOP receptor at 10 uM after 60 mins by scintillation counting analysis relative to control
Rattus norvegicus = species on record: Rattus norvegicus; assay: Displacement of [3H]batrachotoxinin from rat brain voltage gated sodium ion channel site 2 at 10 uM after 60 mins by scintillation counting analysis relative to control
[3] = target: Adrenergic receptor alpha-2 (Rattus norvegicus) (UniProt P22086+P19328+P22909); assay: Displacement of [3H]-RX 821002 from rat alpha2 adrenoceptor at 1 uM after 60 mins by scintillation counting analysis relative to control; type: protein assay
[4] = target: Beta-1 adrenergic receptor (Homo sapiens, UniProt P08588); assay: Displacement of [3H](-)CGP 12177 from human beta1 adrenoceptor at 1 uM after 60 mins by scintillation counting analysis relative to control
[5] = target: Galanin receptor type 2 (Homo sapiens) (UniProt O43603); assay: Displacement of [125I]-endothelin-1 from human recombinant GAL2 receptor at 1 uM after 120 mins by scintillation counting analysis relative to control
Chain of Galanin receptor type 2 (Homo sapiens) (O43603 whole entry): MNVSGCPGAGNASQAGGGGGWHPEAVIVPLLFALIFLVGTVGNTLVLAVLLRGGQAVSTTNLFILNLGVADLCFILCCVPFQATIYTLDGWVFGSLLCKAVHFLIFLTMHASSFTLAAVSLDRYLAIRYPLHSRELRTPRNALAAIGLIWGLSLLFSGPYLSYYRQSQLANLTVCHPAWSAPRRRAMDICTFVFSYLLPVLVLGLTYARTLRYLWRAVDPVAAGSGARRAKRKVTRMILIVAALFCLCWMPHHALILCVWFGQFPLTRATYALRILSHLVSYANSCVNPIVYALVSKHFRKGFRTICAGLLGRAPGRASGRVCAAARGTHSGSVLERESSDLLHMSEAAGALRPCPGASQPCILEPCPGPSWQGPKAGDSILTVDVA

[6] = target: Kappa-type opioid receptor (Homo sapiens, UniProt P41145); assay: Displacement of [3H]U69593 from human kappa receptor at 1 uM after 60 mins by scintillation counting analysis relative to control
Mu-type opioid receptor = Mu-type opioid receptor (Homo sapiens, UniProt P35372); assay: Displacement of [3H]DAMGO from human recombinant mu receptor at 1 uM after 120 mins by scintillation counting analysis relative to control
Chain of Mu-type opioid receptor (P35372 whole entry): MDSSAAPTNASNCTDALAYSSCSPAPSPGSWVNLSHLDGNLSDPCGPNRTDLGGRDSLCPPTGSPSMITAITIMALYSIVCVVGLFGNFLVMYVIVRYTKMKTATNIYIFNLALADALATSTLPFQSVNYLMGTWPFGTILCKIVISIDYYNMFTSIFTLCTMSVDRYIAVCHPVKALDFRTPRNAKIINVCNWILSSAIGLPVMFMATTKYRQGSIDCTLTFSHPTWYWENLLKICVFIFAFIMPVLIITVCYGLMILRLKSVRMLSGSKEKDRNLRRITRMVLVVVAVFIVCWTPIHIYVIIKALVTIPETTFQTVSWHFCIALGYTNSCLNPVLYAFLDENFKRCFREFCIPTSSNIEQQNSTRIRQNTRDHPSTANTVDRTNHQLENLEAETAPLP

[7] = target: 5-hydroxytryptamine receptor 7 (Homo sapiens, UniProt P34969); assay: Displacement of [3H]LSD from human recombinant 5-HT7 receptor at 1 uM after 120 mins by scintillation counting analysis relative to control
Chain of 5-hydroxytryptamine receptor 7 (P34969 whole entry): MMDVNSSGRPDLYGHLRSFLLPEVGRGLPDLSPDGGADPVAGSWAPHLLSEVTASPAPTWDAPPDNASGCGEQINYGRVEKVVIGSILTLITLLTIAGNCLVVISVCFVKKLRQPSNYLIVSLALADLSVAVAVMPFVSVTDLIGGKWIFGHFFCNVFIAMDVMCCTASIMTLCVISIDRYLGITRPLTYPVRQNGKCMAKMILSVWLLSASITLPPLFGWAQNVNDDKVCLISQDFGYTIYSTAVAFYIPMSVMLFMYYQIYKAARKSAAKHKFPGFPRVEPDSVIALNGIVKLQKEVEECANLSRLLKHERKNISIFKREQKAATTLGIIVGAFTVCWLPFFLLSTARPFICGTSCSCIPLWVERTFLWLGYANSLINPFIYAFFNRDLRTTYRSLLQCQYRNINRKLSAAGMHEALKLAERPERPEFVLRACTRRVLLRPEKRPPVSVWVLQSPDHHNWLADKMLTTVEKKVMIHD

[8] = target: Sodium-dependent serotonin transporter (Homo sapiens, UniProt P31645); assay: Displacement of [3H]-imipramine from recombinant human 5-HT transporter at 1 uM after 60 mins by scintillation counting relative to control
Adenosine receptor A2a = Adenosine receptor A2a (Homo sapiens, UniProt P29274); assay: Displacement of [3H]-CGS 21680 from human recombinant adenosine A2A receptor after 120 mins by scintillation counting analysis
Chain of Adenosine receptor A2a (P29274 whole entry): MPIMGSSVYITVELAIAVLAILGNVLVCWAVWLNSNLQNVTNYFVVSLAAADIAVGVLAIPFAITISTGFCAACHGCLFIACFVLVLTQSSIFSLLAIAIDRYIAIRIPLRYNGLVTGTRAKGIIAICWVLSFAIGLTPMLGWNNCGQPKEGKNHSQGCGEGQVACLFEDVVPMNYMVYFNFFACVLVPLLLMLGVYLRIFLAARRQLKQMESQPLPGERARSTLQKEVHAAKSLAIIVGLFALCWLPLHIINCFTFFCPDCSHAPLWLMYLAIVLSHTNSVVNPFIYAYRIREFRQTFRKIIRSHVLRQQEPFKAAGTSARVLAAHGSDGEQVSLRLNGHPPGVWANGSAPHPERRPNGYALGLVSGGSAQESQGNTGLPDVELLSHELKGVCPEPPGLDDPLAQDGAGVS

[9] = target: Adrenergic receptor alpha-2 (Rattus norvegicus, UniProt P22086+P19328+P22909); assay: Displacement of [3H]-RX 821002 from rat alpha2 adrenoceptor after 60 mins by scintillation counting analysis; type: protein assay
[10] = target: Muscarinic acetylcholine receptor M2 (Homo sapiens, UniProt P08172); assay: Displacement of [3H]AF-DX 384 from human recombinant M2 receptor after 60 mins by scintillation counting analysis
Substance-K receptor = Substance-K receptor (Homo sapiens, UniProt P21452); assay: Displacement of [125I]NKA from human recombinant NK2 receptor after 60 mins by scintillation counting analysis
Chain of Substance-K receptor (P21452 whole entry): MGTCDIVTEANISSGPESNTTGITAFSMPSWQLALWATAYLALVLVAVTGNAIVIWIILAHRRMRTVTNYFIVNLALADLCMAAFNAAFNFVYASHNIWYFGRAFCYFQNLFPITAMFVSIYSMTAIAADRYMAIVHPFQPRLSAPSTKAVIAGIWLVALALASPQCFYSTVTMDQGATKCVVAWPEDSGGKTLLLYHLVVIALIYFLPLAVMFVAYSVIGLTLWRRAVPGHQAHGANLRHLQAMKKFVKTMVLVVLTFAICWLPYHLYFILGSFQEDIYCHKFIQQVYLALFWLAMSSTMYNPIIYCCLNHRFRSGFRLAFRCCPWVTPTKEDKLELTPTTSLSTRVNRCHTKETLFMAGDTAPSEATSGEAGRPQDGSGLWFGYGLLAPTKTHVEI

Neuromedin-K receptor = Neuromedin-K receptor (Homo sapiens, UniProt P29371); assay: Displacement of [3H]SR 142801 from human recombinant NK3 receptor after 120 mins by scintillation counting analysis
Chain of Neuromedin-K receptor (P29371 whole entry): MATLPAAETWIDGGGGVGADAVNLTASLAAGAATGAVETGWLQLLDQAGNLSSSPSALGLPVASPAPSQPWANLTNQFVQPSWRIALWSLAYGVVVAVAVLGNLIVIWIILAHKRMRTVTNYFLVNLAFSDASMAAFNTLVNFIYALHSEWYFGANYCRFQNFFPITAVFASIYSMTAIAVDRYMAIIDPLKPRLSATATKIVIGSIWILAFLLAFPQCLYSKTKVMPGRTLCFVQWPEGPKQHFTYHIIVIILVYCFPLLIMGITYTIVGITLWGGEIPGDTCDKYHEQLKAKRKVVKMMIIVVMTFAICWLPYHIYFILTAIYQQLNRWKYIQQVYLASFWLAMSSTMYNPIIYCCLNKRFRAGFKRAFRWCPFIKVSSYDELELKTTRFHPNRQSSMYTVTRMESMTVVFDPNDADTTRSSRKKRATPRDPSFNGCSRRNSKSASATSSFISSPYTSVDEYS

[11] = target: Neuropeptide Y receptor type 2 (Homo sapiens, UniProt P49146); assay: Displacement of [125I]peptide YY from human Y2 receptor after 120 mins by scintillation counting analysis
Chain of Neuropeptide Y receptor type 2 (P49146 whole entry): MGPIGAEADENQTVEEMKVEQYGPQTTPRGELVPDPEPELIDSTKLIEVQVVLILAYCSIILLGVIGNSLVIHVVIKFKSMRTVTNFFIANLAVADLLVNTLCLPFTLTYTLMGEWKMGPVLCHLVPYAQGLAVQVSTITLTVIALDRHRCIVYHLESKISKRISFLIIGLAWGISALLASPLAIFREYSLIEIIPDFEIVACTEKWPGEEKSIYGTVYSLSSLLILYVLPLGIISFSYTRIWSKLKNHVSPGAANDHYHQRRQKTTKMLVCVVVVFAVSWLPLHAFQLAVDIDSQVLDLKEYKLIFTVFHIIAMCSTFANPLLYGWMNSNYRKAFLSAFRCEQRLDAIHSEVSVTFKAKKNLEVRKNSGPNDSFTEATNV

[12] = target: Neurotensin receptor type 1 (Homo sapiens, UniProt P30989); assay: Displacement of [125I]Tyr3-neurotensin from human recombinant NTS1 receptor after 120 mins by scintillation counting analysis
Chain of Neurotensin receptor type 1 (P30989 whole entry): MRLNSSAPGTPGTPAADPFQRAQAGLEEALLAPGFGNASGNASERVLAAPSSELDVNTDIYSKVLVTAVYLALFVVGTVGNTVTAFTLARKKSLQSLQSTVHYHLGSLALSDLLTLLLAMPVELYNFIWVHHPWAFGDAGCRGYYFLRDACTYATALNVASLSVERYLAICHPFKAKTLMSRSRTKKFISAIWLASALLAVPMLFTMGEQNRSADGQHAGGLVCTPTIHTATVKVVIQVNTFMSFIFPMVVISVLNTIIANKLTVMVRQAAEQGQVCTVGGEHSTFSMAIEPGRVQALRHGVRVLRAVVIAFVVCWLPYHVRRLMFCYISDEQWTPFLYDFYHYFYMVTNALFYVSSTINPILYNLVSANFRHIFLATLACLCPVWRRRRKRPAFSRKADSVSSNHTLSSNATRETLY

[13] = target: 5-hydroxytryptamine receptor 6 (Homo sapiens, UniProt P50406); assay: Displacement of [3H]LSD from human recombinant 5-HT6 receptor after 120 mins by scintillation counting analysis
Chain of 5-hydroxytryptamine receptor 6 (P50406 whole entry): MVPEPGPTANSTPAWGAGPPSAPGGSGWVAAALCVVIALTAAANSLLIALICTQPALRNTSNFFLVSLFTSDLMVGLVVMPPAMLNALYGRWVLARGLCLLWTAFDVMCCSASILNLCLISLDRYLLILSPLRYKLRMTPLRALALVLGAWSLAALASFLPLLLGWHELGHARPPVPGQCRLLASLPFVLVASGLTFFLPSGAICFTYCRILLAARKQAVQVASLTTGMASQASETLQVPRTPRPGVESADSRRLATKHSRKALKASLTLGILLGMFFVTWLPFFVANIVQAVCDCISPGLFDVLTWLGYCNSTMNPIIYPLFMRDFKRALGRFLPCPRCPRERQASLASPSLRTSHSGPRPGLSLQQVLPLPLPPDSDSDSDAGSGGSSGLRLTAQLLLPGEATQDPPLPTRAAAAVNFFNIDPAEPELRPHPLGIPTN

[14] = target: Calcium/calmodulin-dependent protein kinase type 1D (Homo sapiens) (UniProt Q8IU85); assay: Inhibition of CaMK1delta (unknown origin) at 10 uM in presence of ATP relative to control
Chain of Calcium/calmodulin-dependent protein kinase type 1D (Homo sapiens) (Q8IU85 whole entry, looked up): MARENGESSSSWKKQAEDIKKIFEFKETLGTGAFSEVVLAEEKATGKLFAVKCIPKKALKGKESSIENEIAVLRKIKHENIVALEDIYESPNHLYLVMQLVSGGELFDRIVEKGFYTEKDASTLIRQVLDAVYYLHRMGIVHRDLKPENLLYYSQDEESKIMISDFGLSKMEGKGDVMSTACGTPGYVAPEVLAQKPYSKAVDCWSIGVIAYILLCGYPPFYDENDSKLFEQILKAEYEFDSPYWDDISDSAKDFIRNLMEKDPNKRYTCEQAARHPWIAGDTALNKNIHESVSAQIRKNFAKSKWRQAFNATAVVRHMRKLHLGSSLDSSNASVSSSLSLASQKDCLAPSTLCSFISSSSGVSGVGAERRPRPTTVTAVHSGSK

[15] = target: Glycogen synthase kinase-3 alpha (Homo sapiens) (UniProt P49840); assay: Inhibition of GSK3alpha (unknown origin) at 10 uM in presence of ATP relative to control
[16] = target: Tyrosine-protein kinase JAK3 (Homo sapiens) (UniProt P52333); assay: Inhibition of recombinant GST-tagged human JAK3 catalytic domain (781 to 1124 residues) expressed in baculovirus expression system at 10 uM in presence of ATP relative to control
[17] = target: Serine/threonine-protein kinase pim-2 (Homo sapiens) (UniProt Q9P1W9); assay: Inhibition of recombinant full length GST-tagged human PIM2 expressed in baculovirus expression system at 10 uM in presence of ATP relative to control
Chain of Serine/threonine-protein kinase pim-2 (Homo sapiens) (Q9P1W9 whole entry, looked up): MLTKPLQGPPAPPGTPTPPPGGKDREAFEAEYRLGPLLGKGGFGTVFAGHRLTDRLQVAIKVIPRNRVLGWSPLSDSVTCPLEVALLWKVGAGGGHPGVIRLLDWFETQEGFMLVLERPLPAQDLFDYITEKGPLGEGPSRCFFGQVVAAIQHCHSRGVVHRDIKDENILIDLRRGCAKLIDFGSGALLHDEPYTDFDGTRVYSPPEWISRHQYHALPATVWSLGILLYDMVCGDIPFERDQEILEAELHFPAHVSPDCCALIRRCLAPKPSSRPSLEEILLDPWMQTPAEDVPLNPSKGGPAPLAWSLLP

[18] = target: cAMP-dependent protein kinase catalytic subunit alpha (Homo sapiens) (UniProt P17612); assay: Inhibition of recombinant human His-tagged PRKACA expressed in Escherichia coli at 10 uM in presence of ATP relative to control
[19] = Volume of distribution at steady state in Sprague-Dawley rat at 1 mg/kg, iv; type: ADME, organism-based; details: in vivo, read-out: Vdss
[20] = Half life in Sprague-Dawley rat at 1 mg/kg, iv; type: ADME, organism-based; details: in vivo
[21] = Oral bioavailability in Sprague-Dawley rat at 5 mg/kg; type: ADME, organism-based; details: in vivo

## CC(C)(C)NS(=O)(=O)c1ccc(-c2sc(C(=O)N[C@H]3C[C@H](C(=O)O)C3)nc2CC2CCCCC2)c2ccccc12
PXR (NR1I2)
  Emax at 16 h, 1 µM: 141%
[1]
  inhibition: < 10%
Melanocortin receptor 4
  inhibition: 25%
[2]
  inhibition: 32%
Nociceptin receptor
  inhibition: < 10%
Rattus norvegicus
  inhibition: 11%
[3]
  inhibition: < 10%
[4]
  inhibition: < 10%
[5]
  inhibition: < 10%
[6]
  inhibition: < 10%
Mu-type opioid receptor
  inhibition: < 10%
[7]
  inhibition: < 10%
[8]
  inhibition: < 10%
Adenosine receptor A2a
  IC50: 9.2 nM
[9]
  IC50: 43 nM
[10]
  IC50: 48 nM
Substance-K receptor
  IC50: 1.2 nM
Neuromedin-K receptor
  IC50: 8.2 nM
[11]
  IC50: 0.28 nM
[12]
  IC50: 0.25 nM
[13]
  IC50: 254 nM
[14]
  inhibition: 11%
[15]
  inhibition: 0%
[16]
  inhibition: -3%
[17]
  inhibition: 4%
[18]
  inhibition: -4%
[19]
  Vd: 1.1 L/kg
[20]
  half-life: 42 min
[21]
  bioavailability: 20%
